Experiment [1] relates to Oocyte. Description: Effect on EZH2 protein expression in ICR mouse oocyte at 1 uM for 14 hrs by Western blot analysis. Type of experiment: functional, cell-based.
Experiment [2] has as its target Histone-lysine N-methyltransferase EZH2 (Mus musculus) (UniProt Q61188). Description: Inhibition of EZH2 in ICR mouse oocyte assessed as EED protein level at 1 uM by Western blot analysis. Type of experiment: cell-based. (In general: A western blot detects proteins with antibodies after separation by electrophoresis.)
For experiment [3] the target is unchanged. Description: Inhibition of EZH2 in ICR mouse oocyte assessed as SUZ12 protein level at 1 uM by Western blot analysis. It counts as cell-based.
For experiment [4] the target is unchanged. Description: Inhibition of EZH2 methyltransferase activity in ICR mouse oocyte assessed as decrease in H3K27 trimethylation level at 1 uM by Immunofluorescence analysis. Type of experiment: cell-based.
For experiment [5] the target is unchanged. Description: Inhibition of EZH2 in ICR mouse oocyte assessed as effect on H3 level at 1 uM by Immunofluorescence analysis. It counts as cell-based.
The target is the same in experiment [6]. Description: Inhibition of EZH2 methyltransferase activity in ICR mouse oocyte assessed as effect on H3K9me2 level at 1 uM by Immunofluorescence analysis. Type of experiment: cell-based.
For experiment [7], the system named is Oocyte. Description: Effect on ICR mouse oocyte meiotic maturation assessed as PB1 extrusions at 1 uM by immunofluorescence analysis. It counts as functional, cell-based.
Experiment [8] deals with Oocyte. Description: Effect on ICR mouse oocyte meiotic maturation assessed as abnormal polar bodies extrusions at 1 uM after 14 hrs by immunofluorescence analysis. Type of experiment: functional, cell-based.
In experiment [9] the test system is Oocyte. Description: Effect on EZH2 protein expression in ICR mouse oocyte at 5 uM for 14 hrs by Western blot analysis. It counts as functional, cell-based.
The target in experiment [10] is Histone-lysine N-methyltransferase EZH2 (Mus musculus) (UniProt Q61188). Description: Inhibition of EZH2 in ICR mouse oocyte assessed as EED protein level at 5 uM by Western blot analysis. Type of experiment: cell-based.
Sequence of Histone-lysine N-methyltransferase EZH2 (Mus musculus) (Q61188 whole entry): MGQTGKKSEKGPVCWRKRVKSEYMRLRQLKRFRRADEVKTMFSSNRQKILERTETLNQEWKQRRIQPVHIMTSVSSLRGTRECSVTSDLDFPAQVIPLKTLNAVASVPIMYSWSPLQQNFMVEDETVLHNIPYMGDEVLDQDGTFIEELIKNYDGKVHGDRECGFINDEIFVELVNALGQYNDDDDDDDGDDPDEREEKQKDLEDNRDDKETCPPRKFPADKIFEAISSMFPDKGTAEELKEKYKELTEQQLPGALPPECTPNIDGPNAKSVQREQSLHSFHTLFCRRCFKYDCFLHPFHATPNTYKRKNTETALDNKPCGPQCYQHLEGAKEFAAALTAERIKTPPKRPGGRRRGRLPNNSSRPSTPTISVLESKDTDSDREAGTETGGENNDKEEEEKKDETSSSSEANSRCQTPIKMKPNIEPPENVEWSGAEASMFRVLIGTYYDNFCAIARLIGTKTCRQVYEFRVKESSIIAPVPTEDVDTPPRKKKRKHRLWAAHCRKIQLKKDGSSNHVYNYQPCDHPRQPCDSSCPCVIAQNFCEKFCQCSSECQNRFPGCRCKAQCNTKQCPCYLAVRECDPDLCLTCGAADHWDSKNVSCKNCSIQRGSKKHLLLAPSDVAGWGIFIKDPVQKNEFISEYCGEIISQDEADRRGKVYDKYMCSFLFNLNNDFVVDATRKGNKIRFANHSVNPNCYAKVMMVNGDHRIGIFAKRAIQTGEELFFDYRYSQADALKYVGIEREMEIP
For experiment [11] the target is unchanged. Description: Inhibition of EZH2 in ICR mouse oocyte assessed as SUZ12 protein level at 5 uM by Western blot analysis. It counts as cell-based.
Experiment [12] deals with Oocyte. Description: Effect on ICR mouse oocyte meiotic maturation assessed as PB1 extrusions at 5 uM by immunofluorescence analysis. Type of experiment: functional, cell-based.
The target of experiment [13] is Histone-lysine N-methyltransferase EZH2 (Mus musculus) (UniProt Q61188). Description: Inhibition of EZH2 in ICR mouse oocyte assessed as decrease in H3K27 trimethylation level at 5 uM by Immunofluorescence analysis. Type of experiment: cell-based.
For experiment [14] the target is unchanged. Description: Inhibition of EZH2 in ICR mouse oocyte assessed as effect on H3 level at 5 uM by Immunofluorescence analysis. Type of experiment: cell-based.
For experiment [15] the target is unchanged. Description: Inhibition of EZH2 methyltransferase activity in ICR mouse oocyte assessed as decrease in H3K9me2 level at 5 uM by Immunofluorescence analysis. It counts as cell-based.

Calls of active or inactive are those of the source. The calls are words filed in the database; no cut-off is given here.

In the case of `CCCc1cc(C)[nH]c(=O)c1CNC(=O)c1cc(-c2ccnc(N3CCN(C)CC3)c2)cc2c1cnn2C(C)C`, the outcome with Oocyte [1] and in the experiment on Oocyte [7] was inactive. In addition, the inhibition result in experiment [2], in experiment [3], in [5] and in experiment [6] was “inactive” in each case. The inhibition entry in experiment [4] is “Active”. For the same molecule, the result in the experiment with Oocyte [8] was Active.
For `Nc1nccc2c1ncn2[C@@H]1C=C(CO)[C@@H](O)[C@H]1O`, the result in the experiment with Oocyte [9] and in the experiment on Oocyte [12] was inactive. For the same molecule, the inhibition entry in experiment [10], in experiment [11] and in experiment [14] was “inactive” each time. Also, the inhibition entry in experiment [13] and in experiment [15] was “Active” in each case.

These data come from ChEMBL document CHEMBL5674871, “EZH2 is required for mouse oocyte meiotic maturation by interacting with and stabilizing spindle assembly checkpoint protein BubRI” (Nucleic Acids Res, 2016).
